This is an account of results in patent US8455475B2 (Gruenenthal GmbH, priority 2009, dated 2013).

For the test, the target named is T1, rat B1R (bradykinin receptor 1) (Rattus norvegicus, UniProt P97583).
T1 construct: expressed in transfected cells; host or cells: CHO K1 cells
T1 sequence (P97583 1-337): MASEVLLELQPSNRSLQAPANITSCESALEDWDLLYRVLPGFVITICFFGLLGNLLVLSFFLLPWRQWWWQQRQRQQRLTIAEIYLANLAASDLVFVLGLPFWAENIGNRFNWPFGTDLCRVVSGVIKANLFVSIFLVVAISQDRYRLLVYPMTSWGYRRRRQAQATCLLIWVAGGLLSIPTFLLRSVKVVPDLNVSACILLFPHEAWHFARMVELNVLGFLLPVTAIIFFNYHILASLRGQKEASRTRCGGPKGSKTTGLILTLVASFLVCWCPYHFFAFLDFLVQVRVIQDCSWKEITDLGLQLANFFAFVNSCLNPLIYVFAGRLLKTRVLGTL
The experiment in a line: FLIPR Ca2+ assay (Fluo-4) on CHO K1 cells stably transfected with the B1R gene of the rat (rB1R cells): % inhibition at 10 μM / IC50, agonist Des-Arg9-bradykinin. The class given is cell-based. As to conditions: CHO-K1, rat B1R. In outline:
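Antagonism is measured as the drop in peak Fluo-4 Ca2+ signal when the EC80 agonist follows 10–20 min compound exposure. The single-point screen uses 10 μM; IC50 uses several concentrations. Values are given as % of maximal achievable inhibition.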

The inhibition is the relative decrease from the control value, in per cent. Consider `CN(C(=O)c1ccccc1Cl)C1CCc2ccc(C(=O)N3CCC4(CCN(C(=O)CC(C)(C)C)CC4)C3)cc21` (centres unmarked) [IND_CC-590, 2-Chloro-N-[6-[8-(3,3-dimethyl-butanoyl)-2,8-diazaspiro[4.5]decane-2-carbonyl]-2,3-dihydro-1H-inden-1-yl]-N-methyl-benzamide], for which the inhibition at 10 µM was found to be 86%.

As for `O=C(NC1CCc2ccc(C(=O)N3CCC4(CC3)CCN(c3ccncc3)C4)cc21)c1c(F)cccc1F` (centres unmarked) [IND_CC-385, 2,6-Difluoro-N-[6-(2-pyridin-4-yl-2,8-diazaspiro[4.5]decane-8-carbonyl)-2,3-dihydro-1H-inden-1-yl]-benzamide], the inhibition at 10 µM amounted to 104%.

On to `CC(C)CN1CCC2(CC1)CCN(C(=O)c1ccc3c(c1)C(NC(=O)c1cccc(Cl)c1Cl)CC3)CC2` (centres unmarked) [IND_CC-757, 2,3-Dichloro-N-[6-[9-(2-methyl-propyl)-3,9-diazaspiro[5.5]undecane-3-carbonyl]-2,3-dihydro-1H-inden-1-yl]-benzamide], for which the inhibition at 10 µM amounted to 52%.

Turning to `CSc1ncccc1C(=O)N1CCC2(CCN(C(=O)c3ccc4c(c3)C(NC(=O)c3ccccc3Cl)CC4)CC2)CC1` (centres unmarked) [IND_CC-595, 2-Chloro-N-[6-[9-(2-methylsulfanyl-pyridine-3-carbonyl)-3,9-diazaspiro[5.5]undecane-3-carbonyl]-2,3-dihydro-1H-inden-1-yl]-benzamide], the inhibition at 10 µM turned out to be 91%.

Regarding `CCC(CC)CN1CCC2(CC1)CCN(C(=O)c1ccc3c(c1)C(NC(=O)c1c(C)cccc1Cl)CC3)C2` (centres unmarked) [IND_CC-768, 2-Chloro-N-[6-[8-(2-ethyl-butyl)-2,8-diazaspiro[4.5]decane-2-carbonyl]-2,3-dihydro-1H-inden-1-yl]-6-methyl-benzamide], the inhibition at 10 µM was determined as 79%.

Consider `Cc1nc[nH]c1CN1CCC2(CC1)CCN(C(=O)c1ccc3c(c1)C(NC(=O)c1cc(C(F)(F)F)ccc1Cl)CC3)CC2` (centres unmarked) [IND_CC-661, 2-Chloro-N-[6-[9-[(5-methyl-3H-imidazol-4-yl)-methyl]-3,9-diazaspiro[5.5]-undecane-3-carbonyl]-2,3-dihydro-1H-inden-1-yl]-5-(trifluoromethyl)benzamide], for which the inhibition at 10 µM worked out at 95%.

Regarding `N#Cc1cccc(NC(=O)N2CCC3(CC2)CCN(C(=O)c2ccc4c(c2)C(NC(=O)c2ccccc2Cl)CC4)CC3)c1` (centres unmarked) [IND_CC-705, 3-[3-[(2-Chloro-benzoyl)amino]-2,3-dihydro-1H-indene-5-carbonyl]-N-(3-cyano-phenyl)-3,9-diazaspiro[5.5]undecane-9-carboxylic acid amide], the inhibition at 10 µM amounted to 101%.

Regarding `Cn1cncc1CN1CCC2(CC1)CCN(C(=O)c1ccc3c(c1)C(NC(=O)c1c(F)cccc1Cl)CC3)CC2` (centres unmarked) [IND_CC-796, 2-Chloro-6-fluoro-N-[6-[9-[(3-methyl-3H-imidazol-4-yl)-methyl]-3,9-diazaspiro[5.5]undecane-3-carbonyl]-2,3-dihydro-1H-inden-1-yl]-benzamide], the inhibition at 10 µM was 66%.

For the compound `CN(C1CCc2ccc(C(=O)N3CCC4(CC3)CCN(c3ccncc3)CC4)cc21)S(=O)(=O)Cc1cccc(Cl)c1` (centres unmarked) [IND_CC-351, 1-(3-Chlorophenyl)-N-methyl-N-[6-(9-pyridin-4-yl-3,9-diazaspiro[5.5]undecane-3-carbonyl)-2,3-dihydro-1H-inden-1-yl]-methanesulfonic acid amide], the inhibition at 10 µM came to 99%.

Turning to `N#Cc1cc(S(=O)(=O)N2CCC3(CCN(C(=O)c4ccc5c(c4)C(NC(=O)c4ccccc4Cl)CC5)CC3)CC2)ccc1F` (centres unmarked) [IND_CC-610, 2-Chloro-N-[6-[9-[(3-cyano-4-fluoro-phenyl)sulfonyl]-3,9-diazaspiro[5.5]undecane-3-carbonyl]-2,3-dihydro-1H-inden-1-yl]-benzamide], the inhibition at 10 µM is 103%.

On to `O=C(NC1CCc2ccc(C(=O)N3CCC4(CCN(CC5CCCCC5)CC4)C3)cc21)c1c(F)cccc1Cl` (centres unmarked) [IND_CC-779, 2-Chloro-N-[6-[8-(cyclohexyl-methyl)-2,8-diazaspiro[4.5]decane-2-carbonyl]-2,3-dihydro-1H-inden-1-yl]-6-fluoro-benzamide], for which the inhibition at 10 µM turned out to be 69%.

Take `O=C(Nc1ccc(F)c(Cl)c1)N1CCC2(CC1)CCN(C(=O)c1ccc3c(c1)C(N(C(=O)c1ccccc1Cl)C1CC1)CC3)C2` (centres unmarked) [IND_CC-713, 2-[3-[(2-Chloro-benzoyl)-cyclopropyl-amino]-2,3-dihydro-1H-indene-5-carbonyl]-N-(3-chloro-4-fluoro-phenyl)-2,8-diazaspiro[4.5]decane-8-carboxylic acid amide]: the inhibition at 10 µM is 77%.

For the compound `CC1(C)CC(NS(=O)(=O)c2ccccc2Cl)c2cc(C(=O)N3CCC4(CC3)CCN(c3ccncc3)CC4)ccc21` (centres unmarked) [IND_CC-337, 2-Chloro-N-[3,3-dimethyl-6-(3-pyridin-4-yl-3,9-diazaspiro[5.5]undecane-9-carbonyl)-1,2-dihydro-inden-1-yl]-benzenesulfonic acid amide], the inhibition at 10 µM amounted to 104%.

For `Cc1noc(C)c1CN1CCC2(CC1)CCN(C(=O)c1ccc3c(c1)C(NC(=O)c1ccccc1Cl)CC3)C2` (centres unmarked) [IND_CC-560, 2-Chloro-N-[6-[8-[(3,5-dimethyl-isoxazol-4-yl)-methyl]-2,8-diazaspiro[4.5]decane-2-carbonyl]-2,3-dihydro-1H-inden-1-yl]-benzamide], the inhibition at 10 µM was determined as 95%.

In the case of `CN(C(=O)c1ccccc1Cl)C1CCc2ccc(C(=O)N3CCC4(CCN(Cc5ccc6nccnc6c5)CC4)C3)cc21` (centres unmarked) [IND_CC-506, 2-Chloro-N-methyl-N-[6-[8-(quinoxalin-6-yl-methyl)-2,8-diazaspiro[4.5]decane-2-carbonyl]-2,3-dihydro-1H-inden-1-yl]-benzamide], the inhibition at 10 µM was found to be 61%.

Consider `O=C(NC1CCc2ccc(C(=O)N3CCC4(CC3)CCN(c3ccncc3)C4)cc21)C1CCCCC1` (centres unmarked) [IND_CC-366, N-[6-(2-Pyridin-4-yl-2,8-diazaspiro[4.5]decane-8-carbonyl)-2,3-dihydro-1H-inden-1-yl]-cyclohexanecarboxylic acid amide], for which the inhibition at 10 µM was 104%.

Take `Cc1cccc(Cl)c1C(=O)NC1CCc2ccc(C(=O)N3CCC4(CCN(Cc5ccc6ncccc6c5)CC4)C3)cc21` (centres unmarked) [IND_CC-764, 2-Chloro-6-methyl-N-[6-[8-(quinolin-6-yl-methyl)-2,8-diazaspiro[4.5]decane-2-carbonyl]-2,3-dihydro-1H-inden-1-yl]-benzamide]: the inhibition at 10 µM came to 71%.

In the case of `CC1(C)Cc2ccc(C(=O)N3CCC4(CC3)CCN(c3ccncc3)CC4)cc2C1NS(=O)(=O)c1ccccc1Cl` (centres unmarked) [IND_CC-336, 2-Chloro-N-[2,2-dimethyl-6-(9-pyridin-4-yl-3,9-diazaspiro[5.5]undecane-3-carbonyl)-1,3-dihydro-inden-1-yl]-benzenesulfonic acid amide], the inhibition at 10 µM is 103%.

Regarding `O=C(c1ccc2c(c1)C(NS(=O)(=O)c1c(Cl)cc(Cl)cc1Cl)CC2)N1CCC2(CCN(c3ccncc3)CC2)C1` (centres unmarked) [IND_CC-407, 2,4,6-Trichloro-N-[6-(8-pyridin-4-yl-2,8-diazaspiro[4.5]decane-2-carbonyl)-2,3-dihydro-1H-inden-1-yl]-benzenesulfonic acid amide], the inhibition at 10 µM was 101%.

With `COc1ccc(C(=O)NC2c3cc(C(=O)N4CCC5(CC4)CCN(c4ccncc4)CC5)ccc3CC2(C)C)c(F)c1` (centres unmarked) [IND_CC-311, N-[2,2-Dimethyl-6-(9-pyridin-4-yl-3,9-diazaspiro[5.5]undecane-3-carbonyl)-1,3-dihydro-inden-1-yl]-2-fluoro-4-methoxy-benzamide], the inhibition at 10 µM turned out to be 83%.
